The test concerns the target T1, MD-2 (myeloid differentiation protein 2) (Homo sapiens, UniProt Q9Y6Y9).
T1 sequence (Q9Y6Y9 19-160): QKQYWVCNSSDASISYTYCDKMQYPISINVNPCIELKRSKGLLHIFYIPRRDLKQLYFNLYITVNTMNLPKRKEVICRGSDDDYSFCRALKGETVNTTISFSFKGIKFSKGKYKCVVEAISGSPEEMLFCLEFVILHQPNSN
Put plainly: intrinsic fluorescence quenching titration. It is filed as binding.

One may read the Kd as the concentration at which binding is half-saturated. The low end stands for tighter binding, the high end for weaker binding. The compound `CN[C@@H](C)Cc1ccccc1` [methamphetamine] yielded an equilibrium dissociation constant (Kd) of 6.7 ± 0.6 µM.

For the origin of these results see paper PMC8316980 (ACS chemical neuroscience, 2019).
